# Reference: PubChem BioAssay (NCI)
#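 The compound was tested at five concentrations on cells cultured in 96-well plates, with a 48-hour exposure period. GI50 is the concentration that inhibits growth by half. The concentration for full growth arrest is given as TGI.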
# Tests used:
# Experiment in all cases: NCI-60 cell line screen, 48 h
# A549 NSCLC = test system: A549 NSCLC
# EKVX NSCLC = test system: EKVX NSCLC
# HCC-2998 colon = test system: HCC-2998 colon
# HL-60(TB) leukemia = test system: HL-60(TB) leukemia
# SF-268 CNS = test system: SF-268 CNS
# UACC-257 melanoma = test system: UACC-257 melanoma
# DU-145 prostate = test system: DU-145 prostate
# MDA-MB-231 breast = test system: MDA-MB-231 breast
# SK-MEL-28 melanoma = test system: SK-MEL-28 melanoma
# PC-3 prostate = test system: PC-3 prostate
Structure (SMILES),TGI (A549 NSCLC) [µM],TGI (EKVX NSCLC) [µM],TGI (HCC-2998 colon) [µM],TGI (HL-60(TB) leukemia) [µM],TGI (SF-268 CNS) [µM],TGI (UACC-257 melanoma) [µM],GI50 (A549 NSCLC) [µM],GI50 (DU-145 prostate) [µM],TGI (DU-145 prostate) [µM],GI50 (HCC-2998 colon) [µM],GI50 (HL-60(TB) leukemia) [µM],GI50 (MDA-MB-231 breast) [µM],TGI (MDA-MB-231 breast) [µM],GI50 (SF-268 CNS) [µM],GI50 (SK-MEL-28 melanoma) [µM],TGI (SK-MEL-28 melanoma) [µM],GI50 (UACC-257 melanoma) [µM],GI50 (EKVX NSCLC) [µM],GI50 (PC-3 prostate) [µM],TGI (PC-3 prostate) [µM]
COC(=O)CCC12CCC(=O)C1[C@@H](C(=O)OC)C[C@H]2C(=O)OC (stereo partly drawn),> 100,> 100,> 100,> 100,> 100,> 100,–,–,–,–,–,–,–,–,–,–,–,–,–,–
Cc1cc(Nc2nc(C(=O)Nc3ccccc3)nc3ccccc23)n[nH]1,> 25,–,> 25,> 25,> 25,> 25,13.9,9.08,> 25,17.7,5.9,13.6,> 25,9.25,> 25,> 25,> 25,–,–,–
CCOC(=O)CCC1(C(=O)OCC)CCCC1=O (stereo not drawn),> 100,> 100,> 100,> 100,> 100,> 100,–,–,–,–,–,–,–,–,–,> 100,–,–,–,–
N#C/C(=C\c1cccc(O)c1O)C(N)=O,> 100,> 100,46.9,31.1,> 100,> 100,–,–,–,–,–,–,–,–,–,> 100,–,–,–,–
CN(C)/C=N\c1ccnc(=O)[nH]1,> 100,> 100,–,> 100,> 100,> 100,–,–,–,–,–,–,–,–,–,> 100,–,–,–,–
CC1(c2cc3c(cc2Br)OCO3)SCCCS1,> 100,> 100,77.3,65.9,> 100,–,–,–,–,–,–,–,–,–,–,> 100,–,–,–,–
COc1ccc(OC(C(=O)O)C(C)C)c2c1CCCC2=O (stereo not drawn),> 100,> 100,> 100,> 100,> 100,> 100,–,–,–,–,–,–,–,–,–,> 100,–,–,–,–
Cc1c2c(cc3c1C(=O)C(=O)C1=C3OC[C@@H]1C)C(C)(C)CCC2,26.8,58.7,42.4,26.9,35.4,28.4,–,–,–,–,–,–,–,–,–,27.3,–,–,–,–
CCN1CCN(c2cc(C)nc(N(CCCNc3ccnc4cc(Cl)ccc34)Cc3ccc4c(c3)OCO4)n2)CC1,> 100,> 100,5.39,4,7.9,3.23,3.67,–,–,2.4,1.9,1.93,4.44,2.57,1.84,3.46,1.72,4.56,3.6,> 100
C#CCNC(=O)ON1C(=O)CCC1=O,> 100,> 100,–,> 100,> 100,> 100,–,–,–,–,–,–,–,–,–,> 100,–,–,–,–
Cc1cc(C)nc(/C(=N\NC(N)=O)C(=O)Nc2nc3ccc(C)cc3s2)c1,> 100,> 100,> 100,> 100,> 100,> 100,–,–,–,–,–,–,–,–,–,> 100,–,–,–,–
COc1ccc(-c2cc(C(=O)Nc3cc(C(F)(F)F)cc(C(F)(F)F)c3)c3ccccc3n2)cc1,17.5,27.4,29.7,> 100,32.2,51.4,–,–,–,–,–,–,–,–,–,73.9,–,–,–,–
O=c1nc(-c2ccccc2)cc(CC(O)c2ccc(Cl)c(Cl)c2)[nH]1 (stereo not drawn),> 100,> 100,> 100,76,> 100,> 100,–,–,–,–,–,–,–,–,–,> 100,–,–,–,–
Cl/C(N=Nc1ccccc1)=N/Nc1ccccc1,> 100,> 100,> 100,> 100,> 100,> 100,–,–,–,–,–,–,–,–,–,> 100,–,–,–,–
[O-]c1ccccc1C=Nc1ccc2c(c1)CCC2.[O-]c1ccccc1C=Nc1ccc2c(c1)CCC2.[O]=[U+2]=[O],> 100,> 100,> 100,> 100,> 100,> 100,> 100,–,–,57.1,9.43,–,–,> 100,> 100,> 100,> 100,> 100,–,–
Cc1cccc2c1c1ccc3c(c1n2C)C(=O)C=CC3=O,37.7,38.2,32.8,2.94,36.5,25,–,–,–,–,–,–,–,–,–,24.4,–,–,–,–
CNc1ccc2ncccc2c1[N+](=O)[O-],> 100,> 100,> 100,> 100,> 100,> 100,–,–,–,–,–,–,–,–,–,> 100,–,–,–,–
COC(=O)C1C(=O)CC2CCCCC21 (stereo not drawn),> 100,–,> 100,> 100,> 100,> 100,–,–,–,–,–,–,–,–,–,> 100,–,–,–,–
